Reference: US9695155B2, “Herbicidal substituted pyrimidinyloxy benzene compounds” (E. I. DU PONT DE NEMOURS AND COMPANY, priority 2013, dated 2017)

What was measured:
wheat [1] = assay: Test A postemergence; type: in vivo, Triticum aestivum
Text: (§1) Seeds of plant species selected from barnyardgrass (Echinochloa crus-galli), kochia (Kochia scoparia), ragweed (common ragweed, Ambrosia elatior), Italian ryegrass (Lolium multiflorum), large (Lg) crabgrass (Digitaria sanguinalis), giant foxtail (Setaria faberii), morningglory (Ipomoea spp.), pigweed (Amaranthus retroflexus), velvetleaf (Abutilon theophrasti), wheat (Triticum aestivum), and corn (Zea mays) were planted into a blend of loam soil and sand and treated preemergence with a directed soil spray using test chemicals formulated in a non-phytotoxic solvent mixture which included a surfactant.
(§2) At the same time, plants selected from these crop and weed species and also blackgrass (Alopecurus myosuroides), and galium (catchweed bedstraw, Galium aparine) were planted in pots containing the same blend of loam soil and sand and treated with postemergence applications of test chemicals formulated in the same manner. Plants ranged in height from 2 to 10 cm and were in the one- to two-leaf stage for the postemergence treatment. Treated plants and untreated controls were maintained in a greenhouse for approximately 10 days, after which time all treated plants were compared to untreated controls and visually evaluated for injury. Plant response ratings, summarized in Table A, are based on a 0 to 100 scale where 0 is no effect and 100 is complete control. A dash (-) response means no test result.

morningglory [2] = assay: Test A postemergence; type: in vivo, Ipomoea spp.
Text: as §1, §2

morningglory [3] = assay: Test A preemergence; type: in vivo, Ipomoea spp.
Text: as §1, §2

pigweed [4] = assay: Test A preemergence; type: in vivo, Amaranthus retroflexus
Text: as §1, §2

large (Lg) crabgrass [5] = assay: Test A preemergence; type: in vivo, Digitaria sanguinalis
Text: as §1, §2

giant foxtail [6] = assay: Test A preemergence; type: in vivo, Setaria faberii
Text: as §1, §2

wheat [7] = assay: Test A preemergence; type: in vivo, Triticum aestivum
Text: as §1, §2

corn [8] = assay: Test A preemergence; type: in vivo, Zea mays
Text: as §1, §2

large (Lg) crabgrass [9] = assay: Test A postemergence; type: in vivo, Digitaria sanguinalis
Text: as §1, §2

barnyardgrass [10] = assay: Test A postemergence; type: in vivo, Echinochloa crus-galli
Text: as §1, §2

velvetleaf [11] = assay: Test A preemergence; type: in vivo, Abutilon theophrasti
Text: as §1, §2

pigweed [12] = assay: Test A postemergence; type: in vivo, Amaranthus retroflexus
Text: as §1, §2

velvetleaf [13] = assay: Test A postemergence; type: in vivo, Abutilon theophrasti
Text: as §1, §2

barnyardgrass [14] = assay: Test A preemergence; type: in vivo, Echinochloa crus-galli
Text: as §1, §2

giant foxtail [15] = assay: Test A postemergence; type: in vivo, Setaria faberii
Text: as §1, §2

corn [16] = assay: Test A postemergence; type: in vivo, Zea mays
Text: as §1, §2

[17] = 1000 g ai/ha, 0 to 100 scale, 0 no effect, 100 complete control
[18] = 1000 g ai/ha, 0 to 100 scale, 0 no effect, 100 complete control, approx. 10 days
[19] = 500 g ai/ha, 0 to 100 scale where 0 is no effect and 100 is complete control

Structure (SMILES)	Plant response rating, Wheat (wheat [1]; [17])	Plant response rating, Morningglory (morningglory [2]; [17])	Morningglory plant response rating (morningglory [3]; [18])	Pigweed plant response rating (pigweed [4]; [18])	Crabgrass, Large plant response rating (large (Lg) crabgrass [5]; [18])	Foxtail, Giant plant response rating (giant foxtail [6]; [18])	Wheat plant response rating (wheat [7]; [18])	Corn plant response rating (corn [8]; [18])	Plant response rating, Crabgrass, Large (large (Lg) crabgrass [9]; [17])	Plant response rating, Barnyardgrass (barnyardgrass [10]; [17])	Velvetleaf plant response rating (velvetleaf [11]; [18])	Plant response rating, Pigweed (pigweed [12]; [17])	Plant response rating, Velvetleaf (velvetleaf [13]; [17])	Barnyardgrass plant response rating (barnyardgrass [14]; [18])	Plant response rating, Foxtail, Giant (giant foxtail [15]; [17])	Plant response rating, Corn (corn [16]; [17])	also measured
Fc1cc(F)cc(-c2cn(-c3c(Br)cccc3Oc3ncc(Cl)cn3)nn2)c1 [Compound 303]	0	30	0	80	60	50	0	0	20	20	0	90	70	0	20	10	–
CC(=O)Oc1cccc(Oc2ncc(Cl)cn2)c1-n1cc(Br)cn1 [Compound 67]	0	10	0	100	–	10	0	–	10	20	10	100	70	–	10	10	Plant response rating, Crabgrass, Large (large (Lg) crabgrass [5]; [17]): 20; Plant response rating, Corn (corn [8]; [17]): 0; Plant response rating, Barnyardgrass (barnyardgrass [14]; [17]): 0
Clc1cnc(Oc2ccccc2-n2cccn2)nc1 [Compound 12, 5-chloro-2-[2-(1H-pyrazol-1-yl)phenoxy]pyrimidine]	–	–	–	–	–	–	–	–	–	–	–	–	–	–	–	–	plant injury at 1000 g/ha (wheat [1]; Triticum aestivum, post-emergence, 240 h, 1000 g ai/ha, 0 to 100 scale, 0 no effect, 100 complete control, read-out: Plant response rating Wheat): 20%; pest or weed control at 1000 g/ha (morningglory [2]; Ipomoea, post-emergence, 240 h, 1000 g ai/ha, 0 to 100 scale, 0 no effect, 100 complete control, read-out: Plant response rating Morningglory): 90%; pest or weed control at 1000 g/ha (morningglory [3]; Ipomoea, pre-emergence, 240 h, 1000 g ai/ha, 0 to 100 scale, 0 no effect, 100 complete control, approx. 10 days, read-out: Morningglory plant response rating): 0%; pest or weed control at 1000 g/ha (pigweed [4]; Amaranthus retroflexus, pre-emergence, 240 h, 1000 g ai/ha, 0 to 100 scale, 0 no effect, 100 complete control, approx. 10 days, read-out: Pigweed plant response rating): 100%; pest or weed control at 1000 g/ha (large (Lg) crabgrass [5]; Digitaria sanguinalis, pre-emergence, 240 h, 1000 g ai/ha, 0 to 100 scale, 0 no effect, 100 complete control, read-out: Plant response rating, Crabgrass, Large): 100%; pest or weed control at 1000 g/ha (giant foxtail [6]; Setaria faberi, pre-emergence, 240 h, 1000 g ai/ha, 0 to 100 scale, 0 no effect, 100 complete control, approx. 10 days, read-out: Foxtail, Giant plant response rating): 100%; plant injury at 1000 g/ha (wheat [7]; Triticum aestivum, pre-emergence, 240 h, 1000 g ai/ha, 0 to 100 scale, 0 no effect, 100 complete control, approx. 10 days, read-out: Wheat plant response rating): 20%; Corn plant response rating (crop injury, 0 = no effect, 100 = complete kill) at 1000 g/ha (corn [8]; Zea mays, pre-emergence, 240 h, 1000 g ai/ha, 0 to 100 scale, 0 no effect, 100 complete control): 0%; pest or weed control at 1000 g/ha (large (Lg) crabgrass [9]; Digitaria sanguinalis, post-emergence, 240 h, 1000 g ai/ha, 0 to 100 scale, 0 no effect, 100 complete control, read-out: Plant response rating Crabgrass, Large): 80%; pest or weed control at 1000 g/ha (barnyardgrass [10]; Echinochloa crus-galli, post-emergence, 240 h, 1000 g ai/ha, 0 to 100 scale, 0 no effect, 100 complete control, read-out: Plant response rating Barnyardgrass): 90%; pest or weed control at 1000 g/ha (velvetleaf [11]; Abutilon theophrasti, pre-emergence, 240 h, 1000 g ai/ha, 0 to 100 scale, 0 no effect, 100 complete control, approx. 10 days, read-out: Velvetleaf plant response rating): 100%; pest or weed control at 1000 g/ha (pigweed [12]; Amaranthus retroflexus, post-emergence, 240 h, 1000 g ai/ha, 0 to 100 scale, 0 no effect, 100 complete control, read-out: Plant response rating Pigweed): 100%; pest or weed control at 1000 g/ha (velvetleaf [13]; Abutilon theophrasti, post-emergence, 240 h, 1000 g ai/ha, 0 to 100 scale, 0 no effect, 100 complete control, read-out: Plant response rating Velvetleaf): 100%; pest or weed control at 1000 g/ha (barnyardgrass [14]; Echinochloa crus-galli, pre-emergence, 240 h, 1000 g ai/ha, 0 to 100 scale, 0 no effect, 100 complete control, read-out: Plant response rating, Barnyardgrass): 100%; pest or weed control at 1000 g/ha (giant foxtail [15]; Setaria faberi, post-emergence, 240 h, 1000 g ai/ha, 0 to 100 scale, 0 no effect, 100 complete control, read-out: Plant response rating Foxtail, Giant): 80%; plant injury at 1000 g/ha (corn [16]; Zea mays, post-emergence, 240 h, 1000 g ai/ha, 0 to 100 scale, 0 no effect, 100 complete control, read-out: Plant response rating Corn): 30%
N#CCOc1cccc(Oc2ncc(Cl)cn2)c1-n1cc(Br)cn1 [Compound 70]	0	20	10	90	–	60	0	–	60	80	70	70	70	–	60	10	Plant response rating, Crabgrass, Large (large (Lg) crabgrass [5]; [17]): 90; Plant response rating, Corn (corn [8]; [17]): 0; Plant response rating, Barnyardgrass (barnyardgrass [14]; [17]): 50
Fc1cccc(Oc2ncc(Cl)cn2)c1-n1cccn1 [Compound 176]	–	–	–	–	–	–	–	–	–	–	–	–	–	–	–	–	Plant response rating, Wheat (wheat [1]; [19]): 10; Plant response rating, Morningglory (morningglory [2]; [19]): 80; Morningglory plant response rating (morningglory [3]; [19]): 0; Pigweed plant response rating (pigweed [4]; [19]): 100; Crabgrass, Large plant response rating (large (Lg) crabgrass [5]; [19]): 100; Foxtail, Giant plant response rating (giant foxtail [6]; [19]): 100; Wheat plant response rating (wheat [7]; [19]): 0; Corn plant response rating (corn [8]; [19]): 0; Plant response rating, Crabgrass, Large (large (Lg) crabgrass [9]; [19]): 40; Plant response rating, Barnyardgrass (barnyardgrass [10]; [19]): 40; Velvetleaf plant response rating (velvetleaf [11]; [19]): 90; Plant response rating, Pigweed (pigweed [12]; [19]): 100; Plant response rating, Velvetleaf (velvetleaf [13]; [19]): 90; Barnyardgrass plant response rating (barnyardgrass [14]; [19]): 60; Plant response rating, Foxtail, Giant (giant foxtail [15]; [19]): 50; Plant response rating, Corn (corn [16]; [19]): 20
Oc1cccc(Oc2ncc(Cl)cn2)c1-n1cc(Cl)cn1 [Compound 229]	0	0	0	100	10	0	0	0	0	0	0	60	0	0	0	0	–
COc1ccc(I)c(-n2cc(Br)cn2)c1Oc1ncc(Cl)cn1 [Compound 207]	0	30	0	0	50	50	0	0	40	10	30	70	30	0	60	0	–
